Experimental data from patent US11072598B2, “Somatostatin modulators and uses thereof” (CRINETICS PHARMACEUTICALS, INC., priority 2017, dated 2021).

The compounds below were run against T1, human somatostatin receptor subtype 2 (Homo sapiens, UniProt P30874) (assay: cAMP functional assay for SSTR2 agonists). Settings: inhibition of cAMP activities via human SST2 receptor (SSTR2), CHO-K1 cells; read-out: EC50.
T1 construct: expressed in transfected cells
Type: cell-based
Excerpt: General overview: All five SSTR subtypes are Gi coupled G-protein coupled receptors (GPCRs) that lead to decreases in intracellular cyclic AMP (cAMP) when activated by an agonist. Therefore, measurement of intracellular cAMP levels can be used to assess whether compounds of the invention are agonists of SSTR subtypes (John Kelly, Troy Stevens, W. Joseph Thompson, and Roland Seifert, Current Protocols in Pharmacology, 2005, 2.2.1-2.2). One example of an intracellular cAMP assay is described below. cAMP assay protocol:
Four days prior to the assay, 5,000 Chinese hamster ovary cells (CHO-K1, ATCC #CCL-61) stably expressing the human somatostatin receptor subtype 2 are plated in each well of a 96-well tissue culture-treated plate in Ham's F12 growth media (ThermoFisher #10-080-CM) supplemented with 10% donor bovine serum (Gemini Bio-Products #100-506), 100 U/mL penicillin; 100 ug/mL streptomycin; 2 mM L-glutamine (Gemini Bio-Products #400-110) and 0.2 mg/mL hygromycin B (GoldBio #31282-04-9). The cells are cultured at 37° C., 5% CO2 and 95% humidity. On the day of the assay, the media is aspirated and the cells are treated with 50 μL of 1.6 μM NKH477 (Sigma #N3290) plus various dilutions of compounds of the invention in assay buffer [1× Hank's Balanced Salt Solution (ThermoFisher #SH3058802), 0.5 mM HEPES pH 7.4, 0.1% bovine serum albumin, 0.2 mM 3-Isobutyl-1-methylxanthine (IBMX, VWR #200002-790)]. The cells are incubated for 20 minutes at 37° C. […] The cells are treated with 50 μL of lysis buffer (HRTF cAMP kit, Cisbio). The lysate is transferred to 384-well plates and cAMP detection and visualization antibodies are added and incubated for 1-24 hours at room temperature. The time-resolved fluorescent signal is read with a Tecan M1000Pro multiplate reader. The intracellular cAMP concentrations are calculated by regression to a standard curve and are plotted vs. the concentration of the compounds of the invention and the EC50 of the compounds are calculated using standard methods. All data manipluations are in GraphPad Prism v6.

T1 sequence (P30874 whole entry): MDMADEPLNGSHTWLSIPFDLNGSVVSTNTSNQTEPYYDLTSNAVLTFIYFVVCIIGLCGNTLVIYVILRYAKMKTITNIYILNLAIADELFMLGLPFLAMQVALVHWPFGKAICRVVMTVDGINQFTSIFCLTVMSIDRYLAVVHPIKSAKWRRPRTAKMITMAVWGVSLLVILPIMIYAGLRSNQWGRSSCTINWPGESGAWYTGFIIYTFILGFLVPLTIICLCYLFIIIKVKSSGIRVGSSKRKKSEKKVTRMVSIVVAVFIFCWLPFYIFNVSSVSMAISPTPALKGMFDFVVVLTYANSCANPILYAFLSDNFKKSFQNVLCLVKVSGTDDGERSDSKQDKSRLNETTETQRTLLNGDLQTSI

Row | EC50 [nM] | SMILES
1 | > 100 | Cc1cc(Cl)cc(-c2cnc(N)c(C=NO)c2N2CCC(N)CC2)c1 [Compound 1-39, 4-(4-aminopiperidin-1-yl)-5-(3-chloro-5-methylphenyl)-3-[(hydroxyimino)methyl]pyridin-2-amine]
2 | < 10 | CON=Cc1ccc2[nH]c(-c3c(N)ncc(-c4cc(C)cc(F)c4)c3N3CCC(N)CC3)nc2c1 [Compound 1-40, 4-(4-aminopiperidin-1-yl)-5-(3-fluoro-5-methylphenyl)-3-{5-[(methoxyimino)methyl]-1H-1,3-benzodiazol-2-yl}pyridin-2-amine]
3 | < 10 | CON=Cc1cccc2[nH]c(-c3c(N)ncc(-c4cc(C)cc(F)c4)c3N3CCC(N)CC3)nc12 [Compound 1-44, 4-(4-aminopiperidin-1-yl)-5-(3-fluoro-5-methylphenyl)-3-{4-[(methoxyimino)methyl]-1H-1,3-benzodiazol-2-yl}pyridin-2-amine]
4 | < 10 | COC(=O)Nc1ccc2[nH]c(-c3c(N)ncc(-c4cc(C)cc(F)c4)c3N3CCC(N)CC3)nc2c1 [Compound 1-45, methyl N-{2-[2-amino-4-(4-aminopiperidin-1-yl)-5-(3-fluoro-5-methylphenyl)pyridin-3-yl]-1H-1,3-benzodiazol-5-yl}carbamate]
5 | < 10 | CONC(=O)Nc1ccc2[nH]c(-c3c(N)ncc(-c4cc(C)cc(F)c4)c3N3CCC(N)CC3)nc2c1 [Compound 1-46, 1-{2-[2-amino-4-(4-aminopiperidin-1-yl)-5-(3-fluoro-5-methylphenyl)pyridin-3-yl]-1H-1,3-benzodiazol-5-yl}-3-methoxyurea]
6 | < 10 | Cc1cc(F)cc(-c2cnc(N)c(-c3nc4cnccc4[nH]3)c2N2CCC(N)CC2)c1 [Compound 1-51, 4-(4-aminopiperidin-1-yl)-5-(3-fluoro-5-methylphenyl)-3-{1H-imidazo[4,5-c]pyridin-2-yl}pyridin-2-amine]
7 | < 10 | Cc1cc(F)cc(-c2cnc(N)c(-c3nc4ncccc4[nH]3)c2N2CCC(N)CC2)c1 [Compound 1-52, 4-(4-aminopiperidin-1-yl)-5-(3-fluoro-5-methylphenyl)-3-{1H-imidazo[4,5-b]pyridin-2-yl}pyridin-2-amine]
8 | < 10 | Cc1cc(F)cc(-c2cnc(N)c(-c3nc4cc(S(C)(=O)=O)ccc4[nH]3)c2N2CCC(N)CC2)c1 [Compound 1-53, 4-(4-aminopiperidin-1-yl)-5-(3-fluoro-5-methylphenyl)-3-(5-methanesulfonyl-1H-1,3-benzodiazol-2-yl)pyridin-2-amine]
9 | < 10 | Cc1cc(F)cc(-c2cnc(N)c(-c3nc4c(F)cc(OCC#N)cc4[nH]3)c2N2CCC(N)CC2)c1 [Compound 1-60, 2-({2-[2-amino-4-(4-aminopiperidin-1-yl)-5-(3-fluoro-5-methylphenyl)pyridin-3-yl]-4-fluoro-1H-1,3-benzodiazol-6-yl}oxy)acetonitrile]
10 | < 10 | CON=Cc1cc(F)c2[nH]c(-c3c(N)ncc(-c4cc(C)cc(F)c4)c3N3CCC(N)CC3)nc2c1 [Compound 1-61, 4-(4-aminopiperidin-1-yl)-5-(3-fluoro-5-methylphenyl)-3-{7-fluoro-5-[(methoxyimino)methyl]-1H-1,3-benzodiazol-2-yl}pyridin-2-amine]
11 | < 10 | C#Cc1ccc2[nH]c(-c3c(N)ncc(-c4cc(C)cc(F)c4)c3N3CCC(N)CC3)nc2c1 [Compound 1-65, 4-(4-aminopiperidin-1-yl)-3-(5-ethynyl-1H-1,3-benzodiazol-2-yl)-5-(3-fluoro-5-methylphenyl)pyridin-2-amine]
12 | < 10 | C#Cc1cc(F)c2[nH]c(-c3c(N)ncc(-c4cc(C)cc(F)c4)c3N3CCC(N)CC3)nc2c1 [Compound 1-66, 4-(4-aminopiperidin-1-yl)-3-(5-ethynyl-7-fluoro-1H-1,3-benzodiazol-2-yl)-5-(3-fluoro-5-methylphenyl)pyridin-2-amine]
13 | < 10 | COc1cc(F)cc(-c2cnc(N)c(-c3nc4cc(F)cc(F)c4[nH]3)c2N2CCC(N)CC2)c1 [Compound 1-67, 4-(4-aminopiperidin-1-yl)-3-(5,7-difluoro-1H-1,3-benzodiazol-2-yl)-5-(3-fluoro-5-methoxyphenyl)pyridin-2-amine]
14 | < 10 | Cc1cc(F)cc(-c2cnc(N)c(-c3nc4cc(C#N)cc(F)c4[nH]3)c2N2CCC(N)CC2)c1 [Compound 1-69, 2-[2-amino-4-(4-aminopiperidin-1-yl)-5-(3-fluoro-5-methylphenyl)pyridin-3-yl]-7-fluoro-1H-1,3-benzodiazole-5-carbonitrile]
15 | < 10 | CNc1ncc(-c2cc(C)cc(F)c2)c(N2CCC(N)CC2)c1-c1nc2ccc(C#N)cc2[nH]1 [Compound 1-70, 2-[4-(4-aminopiperidin-1-yl)-5-(3-fluoro-5-methylphenyl)-2-(methylamino)pyridin-3-yl]-1H-1,3-benzodiazole-6-carbonitrile]
16 | < 10 | CNc1ncc(-c2cc(C)cc(F)c2)c(N2CCC(N)CC2)c1-c1nc2cccc(Cl)c2[nH]1 [Compound 1-72, 4-(4-aminopiperidin-1-yl)-3-(7-chloro-1H-1,3-benzodiazol-2-yl)-5-(3-fluoro-5-methylphenyl)-N-methylpyridin-2-amine]
17 | < 10 | Cc1cc(F)cc(-c2cnc(N)c(-c3nc4cccc(Cl)c4[nH]3)c2N2CCC(N)CC2)c1 [Compound 1-73, 4-(4-aminopiperidin-1-yl)-3-(7-chloro-1H-1,3-benzodiazol-2-yl)-5-(3-fluoro-5-methylphenyl)pyridin-2-amine]
18 | < 10 | CON=Cc1cc(OC)c2[nH]c(-c3c(N)ncc(-c4cc(C)cc(F)c4)c3N3CCC(N)CC3)nc2c1 [Compound 1-76, 4-(4-aminopiperidin-1-yl)-5-(3-fluoro-5-methylphenyl)-3-{7-methoxy-5-[(methoxyimino)methyl]-1H-1,3-benzodiazol-2-yl}pyridin-2-amine]
19 | < 10 | Nc1ncc(-c2cc(F)cc(Cl)c2)c(N2CCC(N)CC2)c1-c1nc2cc(F)cc(F)c2[nH]1 [Compound 1-77, 4-(4-aminopiperidin-1-yl)-5-(3-chloro-5-fluorophenyl)-3-(5,7-difluoro-1H-1,3-benzodiazol-2-yl)pyridin-2-amine]
20 | < 10 | Cc1cc(C)cc(-c2cnc(N)c(-c3nc4cc(F)cc(F)c4[nH]3)c2N2CCC(N)CC2)c1 [Compound 1-78, 4-(4-aminopiperidin-1-yl)-3-(5,7-difluoro-1H-1,3-benzodiazol-2-yl)-5-(3,5-dimethylphenyl)pyridin-2-amine]
21 | < 10 | Cc1cc(Cl)cc(-c2cnc(N)c(-c3nc4cc(F)cc(F)c4[nH]3)c2N2CCC(N)CC2)c1 [Compound 1-79, 4-(4-aminopiperidin-1-yl)-5-(3-chloro-5-methylphenyl)-3-(5,7-difluoro-1H-1,3-benzodiazol-2-yl)pyridin-2-amine]
22 | < 10 | COc1cc(C)cc(-c2cnc(N)c(-c3nc4cc(F)cc(F)c4[nH]3)c2N2CCC(N)CC2)c1 [Compound 1-80, 4-(4-aminopiperidin-1-yl)-3-(5,7-difluoro-1H-1,3-benzodiazol-2-yl)-5-(3-methoxy-5-methylphenyl)pyridin-2-amine]
23 | < 10 | Nc1ncc(-c2cc(F)cc(F)c2)c(N2CCC(N)CC2)c1-c1nc2cc(Cl)ccc2[nH]1 [Compound 1-81, 4-(4-aminopiperidin-1-yl)-3-(5-chloro-1H-1,3-benzodiazol-2-yl)-5-(3,5-difluorophenyl)pyridin-2-amine]
24 | < 10 | Nc1ncc(-c2cc(F)cc(F)c2)c(N2CCC(N)CC2)c1-c1nc2cc(Cl)cc(F)c2[nH]1 [Compound 1-82, 4-(4-aminopiperidin-1-yl)-3-(5-chloro-7-fluoro-1H-1,3-benzodiazol-2-yl)-5-(3,5-difluorophenyl)pyridin-2-amine]
25 | < 10 | COc1cc(F)cc2[nH]c(-c3c(N)ncc(-c4cc(C)cc(C)c4)c3N3CCC(N)CC3)nc12 [Compound 1-83, 4-(4-aminopiperidin-1-yl)-5-(3,5-dimethylphenyl)-3-(6-fluoro-4-methoxy-1H-1,3-benzodiazol-2-yl)pyridin-2-amine]
26 | < 10 | COc1cc(F)c2[nH]c(-c3c(N)ncc(-c4cc(C)cc(C)c4)c3N3CCC(N)CC3)nc2c1 [Compound 1-84]
27 | < 10 | N#Cc1cc(F)c2[nH]c(-c3c(N)ncc(-c4cc(F)cc(Cl)c4)c3N3CCC(N)CC3)nc2c1 [Compound 1-85, 2-[2-amino-4-(4-aminopiperidin-1-yl)-5-(3-chloro-5-fluorophenyl)pyridin-3-yl]-7-fluoro-1H-1,3-benzodiazole-5-carbonitrile]
28 | < 10 | Nc1ncc(-c2cc(F)cc(F)c2)c(N2CCC(N)CC2)c1-c1nc2cc(OC(F)(F)F)ccc2[nH]1 [Compound 1-86, 4-(4-aminopiperidin-1-yl)-5-(3,5-difluorophenyl)-3-[5-(trifluoromethoxy)-1H-1,3-benzodiazol-2-yl]pyridin-2-amine]
